Measurements: patent US9289364B2, “Tyrosinase inhibitors” (Avon Products, Inc., priority 2013, dated 2016)

How the values were obtained:
B16 mouse melanoma cells = assay: Inhibition of melanin production in B16 melanoma cell assay; assay type: cell-based; details: 4 days, alpha MSH 2 nanogram/ml, normalized to cell viability (MTT)
Protocol: The effects of various test compounds on melanin levels were determined by performing assays using B16 melanoma cells. These cells are known to constitutively produce melanin and are a commonly utilized and accepted model system for monitoring the inhibition of melanin synthesis. The B16 mouse melanoma cells were seeded (ATCC, cat. #: CRL-6475) into 96-well tissue culture-treated plates (BD Falcon) and treated with test actives or controls in phenol red free DMEM (Mediatech; cat. #: 17-205-CV) with 2 nanogram/ml of alpha MSH (Fluka; cat #:63605). The cells were examined for their ability to modulate pigment formation. […] Tests were performed in 6 replicates each. Following the treatment period (4 days), the level of pigment produced or melanin synthesized was quantified by reading the absorbance at 540 nm using a standard microplate reader (Tecan Group Ltd.).
After quantifying the amount of melanin, cell viability was determined using the MTT conversion method. The MTT conversion method measures the reduction of the MTT dye from a yellow colored, water-soluble, tetrazolium salt to a bluish-purple colored insoluble formazan precipitate by NAD(P)H-dependent microsomal dehydrogenase enzymes, which only function in viable cells. The intensity of the blue color is indicative of cell viability. After quantifying the amount of melanin pigment produced, the cells were exposed to MTT dye solution (1 mg/ml) for two to three hours. Formazan material was solubilized with reagent alcohol (95% ethanol: 5% isopropanol) and shaken on an orbital shaker for 15-30 minutes. MTT dye uptake and conversion by viable cells were determined by measuring the extracted formazan at 570 nm using a microplate reader. Total pigmentation was calculated, normalized to cell viability values and expressed as the average percent change in melanin activity relative to control of the six experiments performed.

Mushroom tyrosinase = Mushroom tyrosinase assay (conversion of L-Tyrosine to DOPAchrome); assay type: biochemical; details: 25° C., 30 min, absorbance 492 nm
Protocol: Mushroom tyrosinase and L-Tyrosine were obtained from Sigma-Aldrich, Inc. (St. Louis, Mo.). The enzyme activity was measured in buffer containing 100 mM phosphate buffer pH 6.8, 5% absolute ethanol, 2 micrograms/milliliter mushroom tyrosinase, and 0.2 mg/ml L-Tyrosine. The reaction (conversion of L-Tyrosine to DOPAchrome) was conducted in triplicates at 25° C. for 30 min, and absorbance was then measured at 492 nm. Kojic Acid was used as a positive control inhibitor in these assays. Percent change in tyrosinase activity relative to vehicle control was calculated.

Compound | B16 Assay Pigmentation Decrease (percent change in melanin compared to DMSO vehicle control) (B16 mouse melanoma cells; concentration 0.0001%) [%] | Tyrosinase Inhibition (percent change in tyrosinase activity compared to DMSO vehicle control) (Mushroom tyrosinase; concentration 0.0010%) [%] | B16 Assay Pigmentation Decrease (percent change in melanin compared to DMSO vehicle control) (B16 mouse melanoma cells; concentration 0.0010%) [%] | Tyrosinase Inhibition (percent change in tyrosinase activity compared to DMSO vehicle control) (Mushroom tyrosinase; concentration 0.0100%) [%]
Cc1cc(C)cc(Nc2nc(-c3ccc(O)cc3O)cs2)c1 [AV4662] | −57 | −46 | – | –
CN1CCN(c2nc(-c3ccc(O)cc3O)cs2)CC1 [AV5370] | −10 | −75 | −77 | −59
